Reference: US20220193085A1, “METHODS OF THROMBOPROPHYLAXIS” (JANSSEN PHARMACEUTICALS, INC., priority 2020, published 2022)
Values joined by “and” are separate entries in the source; they are usually repeats but may differ in a detail not shown here. Identical values can stand only once. “Also recorded” adds a separate entry of the source.

Experiments:
[1] = system: prothrombin time (PT), activated partial thromboplastin time (aPTT); assay: UNIVERSE PK/PD: PT and aPTT vs plasma rivaroxaban concentration; format: in vivo, pediatric patients; details: UNIVERSE vs adult studies ODIXa-HIP2 and ODIXa-KNEE
Protocol: (§1) PT and aPTT were determined using an electromagnetic mechanical clot detection method at ARUP laboratory (Salt Lake City, Utah, USA). The PT assay was performed according to the manufacturers' instructions on the STA Compact Hemostasis Workstation (STA Compact coagulation analyzer) using one PT reagent (STA-Neoplastine CI Plus, Diagnostica Stago, Inc), with an International Sensitivity Index (ISI) of around 1.3. The primary read-out for PT was in seconds, as the International Normalization Ratio (INR) which allows for comparison of PT values regardless of the reagents and instruments used for its determination, is only calibrated and validated for VKA and cannot be used for any other anticoagulant without validation. The PT reportable range is between 10 and 120 seconds. […] The read-out for aPTT is in seconds with a reportable range between 5 and 180 seconds. Anti-Factor Xa activity was determined at Eurofins Biomnis (France). Anti-Factor Xa activity was measured using a one-step reaction based on the inhibitory effect of rivaroxaban against factor Xa's activity of generating thrombin from prothrombin after adding rivaroxaban into the plasma-substrate mixture using the STA-COMPACT MAX2® system (Diagnostica Stago, Asnieres-sur-Seine, France). […] The calibration range of the assay is 35 to 500 ng/mL, and the lower limit of quantification (LLOQ) is 35 ng rivaroxaban/mL. […]

[2] = UNIVERSE adverse events, serious adverse events and treatment discontinuation; format: in vivo, pediatric patients
Excerpt: Other safety outcomes: Any adverse events and serious adverse events (SAES).

[3] = human, in vivo
Excerpt: The methods and products of the invention concern dosages that are clinically proven safe and/or effective. Adverse events that impact whether the inventive dose, dosing regimen, treatment or method with rivaroxaban of the present invention are safe are adverse bleeding events that include, for example, major bleeding. “Major bleeding” as used herein is defined in accordance with ISTH criteria as clinically overt bleeding associated with a decrease in hemoglobin of […], a transfusion of the equivalent of […] of packed red blood cells or whole blood, or bleeding at a critical site, or with fatal outcome. Other adverse events include clinically relevant non-major bleeding and trivial (minimal) bleeding.
The primary safety outcome was ISTH defined major bleeding. Major bleeding was defined as overt bleeding and: […]
1) Associated with a fall in hemoglobin of 2 g/dL or more; or 2) Leading to a transfusion of the equivalent of 2 or more units of packed red blood cells or whole blood in adults; or 3) Occurring in a critical site: intracranial, intraspinal, intraocular, pericardial, intraarticular, intramuscular with compartment syndrome, retroperitoneal; or 4) Contributing to death.
The secondary safety outcomes were: Clinically relevant non-major bleeding and trivial (minimal) bleeding events.

clinical = details: human, plasma, oral
Protocol: Rivaroxaban was administered twice daily (BID) in an open-label fashion as a 0.1% (1 mg/mL) oral suspension based on weight as shown in Table 2 (not related to prandial state).
Blood samples were collected for PK (i.e., plasma rivaroxaban concentrations) and full PD (prothrombin time [PT], activated partial thromboplastin time [aPTT], and anti-factor Xa activity) assessments on the first day of dosing between 0.5 to 1.5 hours and again between 1.5 to 4.0 hours postdose. Additional samples were collected on Day 4, just prior to rivaroxaban administration (PK, PT, aPTT) and again between 0.5 to 1.5 hours (PK, PT, aPTT), 1.5 to 4.0 hours (PK, PT, aPTT), and 6.0 to 8.0 hours (PK and full PD) postdose. At Month 3, samples were collected just prior to rivaroxaban dosing (PK and full PD) and at 0.5 to 1.5 hours postdose (PK, PT, aPTT) and 2.5 to 4 hours postdose (PK, PT, aPTT). An additional random sample (PK, PT, and aPTT) was collected at Month 12.
In Part B, blood samples were collected for assessment of PT and aPTT before the first dosing; PK and full PD samples were collected between 0.5 to 1.5 hours and again between 1.5 to 4.0 hours after the first dose. At Month 3, PK and full PD samples were collected just prior to rivaroxaban administration and again between 0.5 to 1.5 hours, and 2.5 to 4.0 hours postdose. An additional random sample (PK, PT, and aPTT) was collected at Month 12.
Blood samples for PK or PD assays were centrifuged, and the resulting plasma samples were frozen and stored below −15° C. until analyzed. Rivaroxaban plasma concentrations were determined using the validated liquid chromatography/mass spectrometry/mass spectrometry (LC-MS/MS) method with a lower limit of quantitation (LLOQ) of 0.5 μg/L. The pharmacodynamic effects of rivaroxaban were assessed by evaluation of prothrombin time (PT), activated partial thromboplastin time (aPTT), and anti-Factor Xa activity (AXA).
Patients in Part A received their first dose of rivaroxaban oral suspension on Day 1 (on site) and then continued taking rivaroxaban twice daily for 12 days (+9 days) to achieve steady state. PK and PD samples were collected on Day 1 and Day 4 (+2 days) of rivaroxaban administration (Table 3).
Part A, individual empirical Bayesian post-hoc PK parameters were derived using the existing population PK model from the Einstein Jr program (with the NONMEM option: $ESTIMATION MAXEVAL=0).
The population PK model used for the rivaroxaban PK profile evaluation was based on the Einstein Jr program. The pharmacokinetics of rivaroxaban were described by a linear two-compartment model with first-order oral absorption and first-order elimination from the central compartment with the absorption rate constant (KA), apparent clearance of the central compartment (CL/F), apparent central volume of distribution (Vc/F), apparent peripheral volume of distribution (Vp/F), and transport rate between the central and peripheral compartments (CI) as structural model parameters. CL/F, Q/F, Vp/F, and Vc/F were fig. allometrically scaled with body weight. Inter-individual variability (IIV) was identified for KA and CL/F. Residual error was described by a proportional error model.

factor Xa = assay: UNIVERSE PK/PD: anti-Factor Xa activity vs plasma rivaroxaban concentration; format: in vivo, pediatric patients
Protocol: as §1

[4] = UNIVERSE primary efficacy outcome: any thrombotic event (CIAC adjudicated); format: in vivo, pediatric patients; details: Part A N=12; up to end of treatment; full analysis set
[5] = 10 mg QD, N=140, cited from earlier work
[6] = Part A N=12, treatment-emergent, safety set
[7] = Part B rivaroxaban N=64, aspirin N=34, safety set
[8] = Part B rivaroxaban N=64, aspirin N=34, treatment-emergent, safety set
[9] = Part B rivaroxaban N=64, aspirin N=34, up to end of treatment, full analysis set

O=C(NC[C@H]1CN(c2ccc(N3CCOCC3=O)cc2)C(=O)O1)c1ccc(Cl)s1 [Rivaroxaban, 5-chloro-N-({(5S)-2-oxo-3-[4-(3-oxo-4-morpholinyl)phenyl]-1,3,oxazolidin-5-yl}methyl)-2-thiophenecarboxamide]
PT vs rivaroxaban concentration compared with adult reference [1]: within the 99% prediction range observed in the adult reference studies
aPTT vs rivaroxaban concentration compared with adult reference [1]: within the 99% prediction range observed in the adult reference studies; also recorded: less steep in comparison to adult reference
AEs related to Study Agent, n (%) ([2]; Part A N=12, safety set): 3 (25.0%)
SAEs related to Study Agent, n (%) ([2]; Part A N=12, safety set): 0
TEAEs resulting in Permanent Discontinuation of Study Agent, n (%) ([2]; Part A N=12, safety set): 0
Adverse event: Pleural Effusion, % of participants [2, 6]: (25%)
Adverse event: Pleural Effusion, n (%) [2, 6]: 3
All TESAEs (subjects with 1 or more serious adverse events), % of subjects [2, 6]: (50%)
Serious adverse event: Infections, % of participants [2, 6]: (25%)
Serious adverse event: Infections, n (%) [2, 6]: 3
Serious adverse event: Pleural Effusion, % of participants [2, 6]: (17%)
Serious adverse event: Pleural Effusion, n (%) [2, 6]: 2
Serious adverse event: Respiratory, Thoracic, and Mediastinal Disorders, % of participants [2, 6]: (17%)
Serious adverse event: Respiratory, Thoracic, and Mediastinal Disorders, n (%) [2, 6]: 2
TEAE: Gastrointestinal Disorders, n (%) [2, 6]: 6
TEAE: General Disorders and Administration Site Conditions, n (%) [2, 6]: 1
TEAE: Injury, Poisoning, and Procedural Complications, n (%) [2, 6]: 4
TEAE: Respiratory, Thoracic, and Mediastinal Disorders, n (%) [2, 6]: 5
TEAE: Skin and Subcutaneous Tissue Disorders, n (%) [2, 6]: 3
TEAE: Vascular Disorders, n (%) [2, 6]: 2
Study treatment discontinued due to adverse event of mood disturbance, subjects n (%) ([2]; Part B rivaroxaban N=64): 1 (1.6%)
AEs related to Study Agent, n (%) [2, 7]: 20 (31.3%)
SAEs related to Study Agent, n (%) [2, 7]: 1 (1.6%)
TEAEs resulting in Permanent Discontinuation of Study Agent, n (%) [2, 7]: 2 (3.1%)
All TEAEs (subjects with 1 or more), n (%) [2, 8]: 55 (85.9%) and 55 (86%)
All TESAEs (subjects with 1 or more serious adverse events), n (%) [2, 8]: 18 (28.1%) and 18 (28%)
Serious adverse event: Infections, n (%) [2, 8]: 5 (8%)
Serious adverse event: Pleural Effusion, n (%) [2, 8]: 9 (14%)
Serious adverse event: Respiratory, Thoracic, and Mediastinal Disorders, n (%) [2, 8]: 9 (14%)
TEAE: Gastrointestinal Disorders, n (%) [2, 8]: 19 (29.7%) and 19 (30%)
TEAE: General Disorders and Administration Site Conditions, n (%) [2, 8]: 17 (26.6%) and 17 (27%)
TEAE: Injury, Poisoning, and Procedural Complications, n (%) [2, 8]: 18 (28.1%) and 18 (28%)
TEAE: Respiratory, Thoracic, and Mediastinal Disorders, n (%) [2, 8]: 29 (45.3%) and 29 (45%)
TEAE: Skin and Subcutaneous Tissue Disorders, n (%) [2, 8]: 19 (29.7%) and 19 (30%)
TEAE: Vascular Disorders, n (%) [2, 8]: 3 (4.7%) and 3 (5%)
SAEs, % of subjects [2, 9]: (28.1%)
SAEs, No. of subjects with event [2, 9]: 18/64
New safety signals ([2]; UNIVERSE study): no new safety signals
CRNM bleeding: Hematoma, subjects n (%) [3]: 0
CRNM bleeding: Subconjunctival, subjects n (%) [3]: 0
Clinically relevant non-major (CRNM) bleeding, % of subjects [3]: (6.3%)
Clinically relevant non-major (CRNM) bleeding, No. of subjects with event [3]: 4/64
Clinically relevant non-major bleeding, subjects n (%) [3]: 5
Fall in hemoglobin ≥2 g/dL or transfusion of the equivalent ≥2 units of packed red blood cell or whole blood in adults, No. of subjects with event [3]: 1/64
Fall in hemoglobin ≥2 g/dL or transfusion of the equivalent ≥2 units, % of subjects [3]: (1.6%)
Fatal or critical site bleeding, No. of subjects with event [3]: 0
Major and clinically relevant non-major bleeding, % of subjects [3]: (7.8%)
Major and clinically relevant non-major bleeding, No. of subjects with event [3]: 5/64
Major bleeding (ISTH), % of subjects [3]: (1.3%)
Major bleeding (ISTH), subjects n (%) [3]: 1
Major bleeding (primary safety outcome), % of subjects [3]: (1.6%)
Major bleeding (primary safety outcome), No. of subjects with event [3]: 1/64
Trivial (minimal) bleeding, % of subjects [3]: (32.8%)
Trivial (minimal) bleeding, No. of subjects with event [3]: 21/64
Trivial bleeding, subjects n (%) [3]: 24
Trivial bleeding: GI-Lower, subjects n (%) [3]: 0
AUC(0-t) (clinical): 1480 ng·h/mL
Cmax (clinical): 124 ng/mL
Correlation (r) of anti-factor Xa with rivaroxaban plasma concentrations (factor Xa; UNIVERSE Part A): 0.932
R-squared of anti-factor Xa activity vs plasma rivaroxaban concentrations (factor Xa; UNIVERSE study): 0.901
Arterial/intracardiac thrombosis, subjects n (%) [4]: 0
Primary efficacy outcome (any thrombotic event), subjects n (%) [4]: 1 (8.3%) and 1 (8%)
Pulmonary embolism, subjects n (%) [4]: 0
AUC24h,ss geometric mean (90% CI) ([5]; Adult reference ODIXa-HIP-OD): 1494 ng·h/mL
AUC24h,ss median (range) ([5]; Adult reference): 1452 ng·h/mL
Cmax,ss geometric mean (90% CI) ([5]; Adult reference): 125.8 ng/mL
Cmax,ss median (range) ([5]; Adult reference): 127.6 ng/mL
Ctrough,ss geometric mean (90% CI) ([5]; Adult reference): 13.9 ng/mL
Ctrough,ss median (range) ([5]; Adult reference): 14.3 ng/mL
